Converted amounts (≈) assume the structure as drawn.
Details: for aqueous solubility: pH 6.8

MDR1-MDCK efflux ratio	intrinsic clearance, human liver microsomes [mL/min/kg]	intrinsic clearance, rat liver microsomes [mL/min/kg]	aqueous solubility [µg/mL]	fraction unbound, human plasma	fraction unbound, rat plasma	SMILES
4.22	≤ 4.74	161	–	–	–	Cc1ccc(=O)n(CC2(O)CCN(Cc3cccs3)CC2)n1
26.2	77.8	1260	42.3 (≈ 125 µM)	–	–	Cc1nc2ccccn2c1CC(=O)NCCCSc1ccccc1
0.647	499	3630	2.1 (≈ 5.36 µM)	–	–	CN(C)c1cccc(C(=O)N2CCCC(c3cccc(-c4cccs4)n3)C2)c1 (stereo unspecified)
13.5	≤ 4.74	20.5	73.1 (≈ 141 µM)	–	–	COc1cc(Nc2ncc3c(n2)-c2ccc(Cl)cc2C(c2c(F)cccc2OC)=NC3)ccc1C(=O)O
–	35.8	614	–	–	–	O=C(Nc1cccc2ncccc12)[C@H]1CCCN(S(=O)(=O)c2cccs2)C1
5.08	15.7	245	42.5 (≈ 98.2 µM)	–	–	COc1ccc(NC(=O)CN2CCC(c3cc(-c4cnc(N)nc4)cc(C)n3)CC2)cc1
1.67	12.1	162	–	–	–	CO[C@@H]1CC[C@@H](N(C)C(=O)COc2c(C)cccc2C)[C@H]1O
12.4	499	3320	–	0.00729	0.023	Cc1ccc(NC(=O)CN2[C@H](Cc3ccccc3)C[C@]3(C)NC(=O)CCC[C@H]23)cc1F
0.652	≤ 4.74	72	23.9 (≈ 110 µM)	–	–	Cc1cccn(Cc2cccc(F)c2)c1=O
0.871	9.21	254	41.4 (≈ 131 µM)	–	–	Cc1nc(NC2(c3cccc(Cl)c3)CC2)c2c(C)noc2n1
–	34.9	132	47.6 (≈ 179 µM)	–	–	O=C(Nc1cccc2cnccc12)c1cccc(F)c1
0.366	≤ 4.74	≤ 10.7	–	–	–	O=C(NC[C@]1(O)CCN(Cc2ccsc2)C[C@H]1O)c1c[nH]cn1
0.597	21.2	444	28.5 (≈ 103 µM)	–	–	CC1(C)CN(CC(=O)NCC#N)c2cccc(Cl)c21
2.11	39.4	370	27.6 (≈ 85.6 µM)	–	–	O=C(CSc1nnc(-c2cccs2)[nH]1)N1CCCCCC1
3.88	–	–	0.3 (≈ 0.719 µM)	–	–	COc1ccc(-c2[nH]c3ncccc3c2CN(C)CCOc2ccccc2OC)cc1
0.536	59.6	350	46.6 (≈ 166 µM)	–	–	Cc1nccc(-c2cccc(NCc3cc(C)on3)c2)n1
30.5	≤ 4.74	98.3	35 (≈ 122 µM)	–	–	Cc1cccc(-n2cnnc2CCCN2CCOCC2)c1
0.841	39.6	1750	–	–	–	CSc1ccc(C)c(C(=O)NCCN2CCC(C)CC2)c1
3.43	≤ 4.74	≤ 10.7	42.6 (≈ 152 µM)	–	–	Cc1nc(CNC2CCN(C(=O)C3CC3)CC2)cs1
2.45	32.6	776	–	–	–	O=C(CC/C=C/c1ccccc1)Nc1ccccc1N1CCOC1=O

MDR1-MDCK efflux ratio	intrinsic clearance, human liver microsomes [mL/min/kg]	intrinsic clearance, rat liver microsomes [mL/min/kg]	aqueous solubility [µg/mL]	fraction unbound, human plasma	fraction unbound, rat plasma	SMILES
0.624	55.4	1050	30.4 (≈ 93.3 µM)	–	–	Clc1ccc(-c2ccc(CNCC3CCCO3)o2)c(Cl)c1 (stereo unspecified)
4.16	19.3	278	–	–	–	CCn1ncc(CN(C)C(=O)c2ccc(-c3nc(C)cc(C)n3)cc2)c1C
1.41	≤ 4.74	≤ 10.7	33.3 (≈ 132 µM)	–	–	CS(=O)(=O)N1CC(c2n[nH]c3ncccc23)C1
–	121	5670	–	–	–	Brc1cnc(N2CCCN(c3ccccc3)CC2)nc1
–	7.61	14.6	–	–	–	O=S(=O)(c1ccccc1)N(CC(F)(F)F)c1ccc(C(O)(C(F)(F)F)C(F)(F)F)cc1
26.6	29.8	1410	–	–	–	CC(C)(C)C(=O)N1CCC(CN(CC(N)=O)C2CCCC2)CC1
0.62	≤ 4.74	≤ 10.7	–	–	–	O=C(NCc1cccs1)c1cccnc1
–	–	–	44.5 (≈ 153 µM)	–	–	N#Cc1ncn(Cc2ncc(-c3ccccc3)s2)c1C#N
17.6	6.26	97.3	32.2 (≈ 103 µM)	–	–	COC(=O)[C@@H]1Cc2ncn(Cc3ccccc3)c2CN1C(C)=O
58.2	≤ 4.74	30.4	–	–	–	CC(C)n1c(=O)cc(N[C@@H](C)c2ccccc2)[nH]c1=O
0.519	–	–	0.9 (≈ 2.79 µM)	–	–	COc1cccc(N2CCN(c3nc(C)cc(C)c3C#N)CC2)c1
–	31.2	729	–	–	–	Cc1cccc2cnc(C3CCN(C(=O)CCc4ccno4)CC3)cc12
10.5	8.47	46.3	–	–	–	Cc1cc(Nc2nc(N[C@@H](C)c3ncc(F)cn3)ncc2Cl)n[nH]1
–	12.2	302	–	–	–	Cc1cnccc1NC(=O)COc1ccccc1C#N
–	–	–	0.47 (≈ 1.15 µM)	–	–	C[C@@H](c1ccc(F)cc1)n1nnc2cnc3ccc(-c4ccc5ocnc5c4)cc3c21
52	18.8	244	49.4 (≈ 147 µM)	–	–	Cn1nc(C2CC2)c2[nH]c(-c3cccc(CN4CCOCC4)c3)nc21
0.985	≤ 4.74	≤ 10.7	40.2 (≈ 139 µM)	–	–	O=C(Nn1cnc2ccccc21)c1cc(Cl)ccc1F
–	≤ 4.74	≤ 10.7	–	–	–	O=c1c2c(Cl)ccc(Cl)c2ncn1Cc1cc(O)ncn1
12.3	≤ 4.74	42.6	45.9 (≈ 143 µM)	–	–	CN(CC(=O)Nc1cc(F)cc(F)c1)c1ccnc(C(N)=O)c1
0.578	148	4590	–	–	–	COCCc1nsc(Oc2ccc(C)cc2Br)n1

SMILES	MDR1-MDCK efflux ratio	intrinsic clearance, human liver microsomes [mL/min/kg]	intrinsic clearance, rat liver microsomes [mL/min/kg]	aqueous solubility [µg/mL]	fraction unbound, human plasma	fraction unbound, rat plasma
Cc1cc(NC2CCCC2)nc(C2CCNCC2)n1	66.7	≤ 4.74	24.8	71.4 (≈ 274 µM)	–	–
